Source: the METLIN SMRT retention time set (Domingo-Almenara et al. 2019)

Test: gradient 5% acetonitrile 3 min, to 50% in 2 min, to 85% in 15 min, held 3 min, 100 µL/min
Details: column: Zorbax Extend-C18 2.1 x 50 mm; eluents: water / acetonitrile, 0.1% formic acid
Outline: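 A Zorbax Extend-C18 column (2.1 × 50 mm, 1.8 μm) run at 100 μL/min with water and acetonitrile, both containing 0.1% formic acid, separated mixtures of ~100 pure standards. The HPLC was coupled to a quadrupole time-of-flight mass spectrometer operated in positive and negative ionization mode, with dead and dwell volumes of 40 μL and 900 μL. Each retention time was taken from a computationally picked adduct peak that was then manually inspected.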

Compound	RP-LC retention time
C[C@H]1CN(C(=O)NCc2ccccc2)C[C@@H]1c1nc(-c2ccncc2)no1	715 s
CS(=O)(=O)N1C[C@H]2CCN(Cc3ccc(F)cc3Cl)C[C@H]21	597 s
O=C(CCSc1ccccc1)NCC1CCN(C(=O)COc2ccccc2)CC1	757 s
Cc1cccc(S(=O)(=O)N2CCC(OCc3nc(C)no3)CC2)c1	886 s
Nc1cc(C(F)(F)F)c(-c2cc(N3CCOCC3)nc(N3CCOCC3)n2)cn1	650 s
CCc1cccc(NC(=O)c2cc3n(n2)CC(C)(C(=O)NC2CCCC2)N(CC)C3=O)c1 (centres undefined)	605 s
CCNC(=O)c1cc2cc(C)ccc2[nH]1	791 s
CCn1cc(C)c(C(=O)O)c1CC(=O)N1CCc2ccccc21	815 s
O=C(NCc1ccccc1F)c1c(O)c2cccnc2n(-c2cccc(F)c2)c1=O	1170 s
CCC(C)NC(=O)Cn1nc2nc(Nc3ccc(F)cc3)ccn2c1=O (centres undefined)	684 s
Cc1ccccc1CNC(=O)Cn1cccc1-c1nnc(C2CCC2)o1	920 s
Cc1ccc2c(c1)N(C(=O)Cn1cnc(-c3nc(-c4ccccc4)cs3)c1)CCO2	954 s
Cc1ccc2nc(NC(=O)Cn3c(=O)n(C(C)C)c4ccc(-c5noc(C)n5)cc43)sc2c1	948 s
CCCN(Cc1cccs1)C(=O)C1CCc2nc(N3CCC(C)CC3)ncc2C1 (centres undefined)	979 s
CSc1ccc(-c2nc3ccccn3c2Nc2ccccc2C)cc1	794 s
CC1CCC(NC(=O)C2CCN(S(=O)(=O)c3ccc4c(c3)sc(=O)n4C)CC2)CC1 (centres undefined)	896 s
CCN(CC)S(=O)(=O)c1ccc2c(c1)N(CC(=O)NCCCOC)C(=O)C1CCCCN21 (centres undefined)	802 s
Cc1cc(Nc2ccccc2)nc(N2CCN(C(=O)Nc3ccc(F)cc3)CC2)n1	696 s
CC(C)CC(=O)N1CC(c2nc(-c3cccnc3)no2)C2(CCOCC2)C1 (centres undefined)	706 s
CCc1nc2cc(N3CCCC(C(=O)NCCOC)C3)cnc2nc1CC (centres undefined)	662 s
COC(=O)c1scc(-c2ccc(C)cc2)c1S(=O)(=O)N1CCC(C(N)=O)CC1	798 s
COc1cc(OC)c(NS(=O)(=O)c2cc(-c3cc(C(F)(F)F)on3)sc2C)cc1Cl	1150 s

Compound	RP-LC retention time
COc1ccccc1C(=O)Nc1c(-c2ccc(F)cc2)nc2ccccn12	676 s
COc1ccc(N2CCOCC2)c2sc(NC(=O)N3CCC(C)(O)CC3)nc12	732 s
COc1ccc2c(c1)C=C(C(=O)NCCc1c[nH]c3ccc(OC)cc13)CO2	800 s
O=C(CCc1cccc2[nH]ccc12)NCc1ccc(N2CCCCC2)cc1	612 s
COCCNC(=O)NCC1(c2ccccc2)CCOCC1	615 s
O=C(Cc1ccsc1)N1CCC(n2c(-c3ccoc3)nc3cccnc32)C1 (centres undefined)	811 s
Cc1ccc(-c2nnc(Cc3nc(-c4cccs4)no3)o2)cc1F	1010 s
CCOC(=O)c1c(C)[nH]c(C(=O)N2CCC(C(C)C(=O)NCc3ccc(OC(C)C)cc3)CC2)c1C (centres undefined)	892 s
COC(=O)CCNC(=O)C1c2ccccc2C(=O)N(c2ccccc2)C12CCCCC2 (centres undefined)	826 s
Cc1cccc2sc(NC(=O)C3(c4cccs4)CCOCC3)nc12	987 s
Cc1cc(C(=O)N2CC(c3nc(Cc4ccccc4)no3)C2)c(C)o1	836 s
CCOc1ccccc1NC(=O)CSc1nnc2c3cc(-c4ccc(C)c(C)c4)nn3ccn12	1090 s
Cc1c(Cl)cccc1NC(=O)/C=C/c1ccccc1	947 s
COc1ccc(CNC(=O)C2(C)Cn3nc(C)cc3C(=O)N2c2ccc(F)cc2)cc1 (centres undefined)	764 s
Cc1ccc2nc(C(=O)NCc3ccc(C)o3)cn2c1	660 s
O=C(O)CNC(=O)C1CCN(S(=O)(=O)c2ccc(F)cc2)CC1	652 s
CC(C)OCCCNC(=O)c1cc2c(n(-c3ccc(C(C)C)cc3)c1=O)CCCC2=O	989 s
CCN1CCN(CCCNC(=O)c2sc3ncccc3c2-n2c(C)ccc2C)CC1	607 s
COc1ccc2cc(C(=O)N3CCC(CC(=O)N4CCN(c5ccccn5)CC4)CC3)[nH]c2c1	623 s
Cc1cc(-c2nnc(C3CC3)o2)c(C)n1CC(=O)NCc1ccc(F)cc1Cl	840 s
COc1ccc(CC(=O)Nc2cc3c(cc2SC(C)C)n(C)c(=O)n3C)cc1	923 s
COC(=O)c1ccc(NC(=O)c2cc(C(C)(C)C)n3nccc3n2)cc1	865 s
